The source of these data is patent EP4813992A1, “POLYARYL DERIVATIVE AND USE THEREOF” (Hangzhou HealZen Therapeutics Co., Ltd., priority 2023, dated 2025).

Each structure is given as a SMILES string. A value given as a limit tells only on which side of the number the result lay.

In data set [1] the target is T1, HPK1 kinase (Homo sapiens, UniProt Q92918). As to the kind of experiment: Lantha screen assay, inhibitory effect on HPK1 kinase. Format: biochemical. The conditions noted are these: initial compound concentration 1 µM. An outline of the steps:
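Kinase pre-incubated with compound for 10 min at room temperature in 50 mM HEPES pH 7.5, 10 mM MgCl2, 4 mM DTT, 0.01% Tween-20, 0.01% BSA. Fluorescein-PKC substrate plus ATP then added for 90 min, stopped with antibody/EDTA for 60 min. Top concentration 1 µM; IC50 from four-parameter fit of inhibition vs log concentration.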

The next data set concerns HPK1/GLK. As to the kind of experiment: Selectivity of degrading HPK1/GLK in Jurkat cells (Western blot, 24 h). Format: cell-based. The conditions noted are these: HPK1/GLK Fold = DC50 (HPK1) / DC50 (GLK). As to the method: • 1) Cell plating: Cells are resuscitated, Jurkat cell lines in good growth condition are selected, and cells in the logarithmic growth phase are collected and counted; cell suspensions are seeded into 12 or 24-well plates (20W/well) and incubated overnight at 37°C in a 5% CO2 incubator. • 2) Preparation of compounds to be tested: The compounds to be tested are serially diluted with DMSO according to the experimental requirements and added to the corresponding cell wells, to be incubated at 37°C in a 5% CO2 incubator for 24 h. • 3) Preparation of samples: After the reaction of the compound to be tested is completed, the cells are collected in 1.5 mL EP tubes, and centrifuged at 1500 rpm for 5 min; after the supernatant is discarded, the cells are washed once with PBS, and the BCA protein is quantified and the concentration is adjusted. The adjusted samples are added to 5*loading buffer, boiled at 100°C for 10 minutes, and then the samples are loaded after the temperature is returned to room temperature. • 4) Detection of samples: Electrophoresis is performed using 10% SDS-PAGE with a sample loading volume of 10 µL/well. After the membrane transfer is completed, the samples are blocked with 5% skim milk at room temperature for 1 h. After the residual blocking solution is washed away with TBST, HPK1 and GLK antibodies are added for incubation overnight at 4°C. Washing is performed 3 more times with TBST on a shaker, 5 minutes each time. After washing is completed, the secondary antibody is added for incubation at room temperature in a shaker for 1 hour; then, washing is performed 3 more times with TBST on a shaker, 5 minutes each time; finally, the membrane is soaked in TBST and then subjected to chemiluminescence development. • 5) Data Processing: After the PVDF membrane is developed, the data are exported and plotted using Imang J, and the gray values of the protein bands are analyzed using Image J software; the DC50 curve is fitted using Graphpad Prism 9 software to obtain the results of the selectivity of the compound in degrading HPK1/GLK: HPK1/GLK Fold = DC50 (HPK1) / DC50 (GLK) . Table 3 Selectivity of the compounds of the invention in degrading HPK1/GLK
On the technique in general: Immunoblotting shows a protein as a band on a membrane.

Data set [2] in a line: Pharmacokinetic properties in SD rats after gavage. The data set is classed as in vivo. The conditions noted are these: rat, po, 10 mg/kg, plasma. The protocol:
The test compound is administered to SD rats by gavage at a dose of 10 mg/kg. Blood samples are collected at 0 h (before administration) and at 0.083, 0.25, 1, 2, 4, 6, 8, and 24 h after oral gavage administration. The samples are placed in anticoagulant tubes containing heparin sodium, and the mixture is thoroughly vortexed and centrifuged at 6000 rpm for 3 minutes. Plasma concentrations are determined by LC-MS/MS, and relevant pharmacokinetic parameters are calculated using Phoenix WinNonlin 8.2.0 pharmacokinetic software. Table 4 Pharmacokinetic properties of the compounds of the invention

The target in data set [3] is T1, HPK1 kinase. Kind of data set: Activity of degrading HPK1 in Jurkat cells (Western blot, 24 h). The data set is classed as cell-based. The arrangement: endogenous in cells; host or cells: Jurkat. The conditions noted are these: HPK1 protein degradation. The protocol: The adjusted samples are added to 5*loading buffer, boiled at 100°C for 10 minutes, and then the samples are loaded after the temperature is returned to room temperature. • 4) Detection of samples: Electrophoresis is performed using 10% SDS-PAGE with a sample loading volume of 8 µL/well. After the membrane transfer is completed, the samples are blocked with 5% BSA at room temperature for 1 h. After the residual blocking solution is washed away with TBST, HPK1 and GAPDH antibodies are added for incubation overnight at 4°C. Washing is performed 3 more times with TBST on a shaker, 10 minutes each time. After washing is completed, the secondary antibody is added for incubation at room temperature for 1 hour; then, washing is performed 3 more times with TBST on a shaker, 10 minutes each time; finally, ECL exposure solution is used to develop and image the bands to detect changes in HPK1 protein.

T1 sequence (Q92918 whole entry): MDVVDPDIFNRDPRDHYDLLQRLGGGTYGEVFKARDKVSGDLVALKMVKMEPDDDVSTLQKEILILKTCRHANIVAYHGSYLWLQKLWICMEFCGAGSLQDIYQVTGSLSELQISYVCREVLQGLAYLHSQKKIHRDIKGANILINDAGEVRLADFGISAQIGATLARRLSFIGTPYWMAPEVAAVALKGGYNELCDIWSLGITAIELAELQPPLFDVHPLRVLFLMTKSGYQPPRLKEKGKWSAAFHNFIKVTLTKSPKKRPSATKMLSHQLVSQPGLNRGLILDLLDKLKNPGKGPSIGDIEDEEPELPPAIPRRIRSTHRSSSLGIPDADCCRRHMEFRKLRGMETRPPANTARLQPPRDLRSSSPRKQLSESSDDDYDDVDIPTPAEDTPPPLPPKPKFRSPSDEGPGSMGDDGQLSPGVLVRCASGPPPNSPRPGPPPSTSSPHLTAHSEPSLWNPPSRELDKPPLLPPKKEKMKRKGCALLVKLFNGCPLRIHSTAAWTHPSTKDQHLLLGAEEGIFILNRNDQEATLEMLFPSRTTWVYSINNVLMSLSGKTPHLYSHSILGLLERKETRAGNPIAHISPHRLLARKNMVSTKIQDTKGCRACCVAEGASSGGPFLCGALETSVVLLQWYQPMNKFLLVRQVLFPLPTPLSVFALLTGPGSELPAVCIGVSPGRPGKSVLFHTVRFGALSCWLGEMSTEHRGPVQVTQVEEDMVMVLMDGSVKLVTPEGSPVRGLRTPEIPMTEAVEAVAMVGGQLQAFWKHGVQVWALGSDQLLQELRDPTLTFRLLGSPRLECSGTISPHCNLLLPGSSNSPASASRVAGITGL

Take `Cc1cc(-c2cnc3[nH]cc(-c4ccc(C(=O)N(C)C)cc4)c3c2)cc(C)c1C1=CCN(CC2CN(c3ccc(N4CCC(=O)NC4=O)c(F)c3)C2)CC1` [compound 144]: on HPK1 kinase [1], the IC50 (as a rule, the concentration that gives 50% inhibition) was below 0.01 µM. The “HPK1/GLK Fold” value in the data set with HPK1/GLK is “++++ (1000≤Fold)”. Also, in data set [2], the area under the curve (AUC) (commonly concentration integrated over time) came to 5750 ng·h/mL. The DC50 (usually the concentration at which degradation of the target reaches its halfway point) on HPK1 kinase [3] (class symbols) is below 0.01 µM.
In turn, `Cc1cc(-c2cnc3[nH]cc(-c4cnn5c4CCC5)c3n2)cc(C)c1C1=CCN(CC2CN(c3ccc(N4CCC(=O)NC4=O)c(F)c3)C2)CC1` [compound 170] returned an IC50 against HPK1 kinase [1] below 0.01 µM. Besides, in the data set with HPK1/GLK, the “HPK1/GLK Fold” value was “++++ (1000≤Fold)”. In data set [2], this compound had an AUC of 12700 ng·h/mL. This compound also gave a DC50 on HPK1 kinase [3] (class symbols) below 0.01 µM.
`Cc1cc(-c2cnc3[nH]cc(-c4ccc(C(=O)N(C)C)cc4)c3n2)cc(C)c1C1=CCN(CC#Cc2cccc3c(C4CCC(=O)NC4=O)coc23)CC1` (stereo not shown) [compound 024]: the IC50 against HPK1 kinase [1] was below 0.01 µM. In the data set with HPK1/GLK, the “HPK1/GLK Fold” value is given as “++++ (1000≤Fold)”. In data set [2], this compound registered an AUC of 12000 ng·h/mL. The DC50 on HPK1 kinase [3] (class symbols) was below 0.01 µM.
`O=C1CCN(c2cc(C(=O)N3CCC(CC4CCN(c5ccc(-c6cnc7[nH]cc(-c8cnn(CC(F)(F)F)c8)c7n6)cn5)CC4)CC3)ccc2Cl)C(=O)N1` [Compound a, reference compound]: the exposure (AUC) in data set [2] amounted to 3850 ng·h/mL.
The compound `Cc1cc(-c2cnc3[nH]cc(-c4ccc(C(=O)N(C)C)cc4)c3n2)cc(C)c1C1=CCN(CC2CN(c3ccc(OC4CCC(=O)NC4=O)cn3)C2)CC1` (stereo not shown) [compound 086] returned an IC50 on HPK1 kinase [1] below 0.01 µM. For the same compound, the “HPK1/GLK Fold” value in the data set on HPK1/GLK is “++++ (1000≤Fold)”. The compound also yielded an AUC in data set [2] of 8500 ng·h/mL.
On to `COc1cc(-c2cnc3[nH]cc(-c4ccc(C(=O)N(C)C)cc4)c3n2)ccc1C1=CCN(CC2CN(c3ccc(N4CCC(=O)NC4=O)c(C)c3)C2)CC1` [compound 135], for which the IC50 on HPK1 kinase [1] is below 0.01 µM. The “HPK1/GLK Fold” value in the data set with HPK1/GLK is given as “++++ (1000≤Fold)”. The same compound returned an AUC in data set [2] of 5480 ng·h/mL. For the same compound, at HPK1 kinase [3] (class symbols), the DC50 was below 0.01 µM.
On HPK1 kinase [1], `Cc1cc(-c2cnc3[nH]cc(-c4ccc(C(=O)N(C)C)cc4)c3n2)cc(C)c1C1=CCN(CC2CN(c3ccc(C(=O)NC4CCC(=O)NC4=O)nc3)C2)CC1` (stereo not shown) [compound 016] returned an IC50 below 0.01 µM. Moreover, in the data set on HPK1/GLK, the “HPK1/GLK Fold” value is listed as “++++ (1000≤Fold)”. Besides, the AUC in data set [2] turned out to be 5000 ng·h/mL. Also, on HPK1 kinase [3] (class symbols), the DC50 was below 0.01 µM.
Turning to `Cc1cc(-c2cnc3[nH]cc(-c4ccc(C(=O)N(C)C)cc4)c3n2)cc(C)c1C1=CCN(CC2CN(c3cc4c(cc3F)c(N3CCC(=O)NC3=O)nn4C)C2)CC1` [compound 062], the IC50 at HPK1 kinase [1] is below 0.01 µM. The “HPK1/GLK Fold” value in the data set with HPK1/GLK is on record as “++++ (1000≤Fold)”. This compound also showed an AUC in data set [2] of 9920 ng·h/mL.
`Cc1cc(-c2cnc3[nH]cc(-c4ccc(C(=O)N(C)C)cc4)c3n2)cc(C)c1C1=CCN(C2CN(c3ccc(C(=O)NC4CCC(=O)NC4=O)cn3)C2)CC1` (stereo not shown) [compound 011] gave an IC50 at HPK1 kinase [1] below 0.01 µM. The “HPK1/GLK Fold” value in the data set with HPK1/GLK was “++++ (1000≤Fold)”. In data set [2], this compound yielded an AUC of 8990 ng·h/mL.
Turning to `Cc1cc(-c2cnc3[nH]cc(-c4ccc(C(=O)N(C)C)cc4)c3n2)cc(C)c1C1=CCN(CC2CN(c3ccc(NC4CCC(=O)NC4=O)cc3F)C2)CC1` (stereo not shown) [compound 052], the “HPK1/GLK Fold” value in the data set on HPK1/GLK was “++++ (1000≤Fold)”. In addition, the AUC in data set [2] came to 6300 ng·h/mL. The compound also came in with a DC50 on HPK1 kinase [3] (class symbols) below 0.01 µM.
The compound `Cc1cc(-c2cnc3[nH]cc(-c4cncc5c4ncn5C)c3n2)cc(C)c1C1=CCN(CC2CN(c3cc(F)c(C4CCC(=O)NC4=O)c(F)c3)C2)CC1` (stereo not shown) [compound 057] showed an IC50 against HPK1 kinase [1] below 0.01 µM. Moreover, the “HPK1/GLK Fold” value in the data set with HPK1/GLK is “++++ (1000≤Fold)”. In data set [2], this compound yielded an AUC of 11300 ng·h/mL.
The compound `Cc1cc(-c2cnc3[nH]cc(-c4ccc(C(=O)N(C)C)cc4)c3n2)cc(C)c1C1=CCN(CC2CN(c3ccc(N4CCC(=O)NC4=O)c(F)c3)C2)CC1` [compound 049] yielded an IC50 against HPK1 kinase [1] below 0.01 µM. For the same compound, the “HPK1/GLK Fold” value in the data set on HPK1/GLK is on record as “++++ (1000≤Fold)”. This compound returned an AUC in data set [2] of 9570 ng·h/mL. The DC50 on HPK1 kinase [3] (class symbols) is below 0.01 µM.
In the case of `Cc1cc(-c2c[nH]c3ncc(-c4cc(C)c(C5=CCN(CC6CN(c7ccc(N8CCC(=O)NC8=O)c(F)c7)C6)CC5)c(C)c4)nc23)c(C)s1` [compound 150], on HPK1 kinase [1], the IC50 is below 0.01 µM. The “HPK1/GLK Fold” value in the data set with HPK1/GLK is “++++ (1000≤Fold)”. The compound further displayed an exposure (AUC) in data set [2] of 13100 ng·h/mL. At HPK1 kinase [3] (class symbols), this compound came in with a DC50 below 0.01 µM.
For `Cc1cc(N2CC(CN3CC=C(c4c(C)cc(-c5cnc6[nH]cc(-c7ccc(C(=O)N(C)C)cc7)c6n5)cc4C)CC3)C2)ccc1N1CCC(=O)NC1=O` [compound 014], at HPK1 kinase [1], the IC50 is below 0.01 µM. Also, in the data set with HPK1/GLK, the “HPK1/GLK Fold” value was “++++ (1000≤Fold)”. Also, the AUC in data set [2] stood at 11400 ng·h/mL. This compound displayed a DC50 at HPK1 kinase [3] (class symbols) below 0.01 µM.
Compound `Cc1cc(-c2cnc3[nH]cc(-c4ccc(C(=O)N(C)C)cc4)c3n2)cc(C)c1C1=CCN(CC2CN(c3cnn(C4CCC(=O)NC4=O)c(=O)c3)C2)CC1` (stereo not shown) [compound 085] came in with an IC50 on HPK1 kinase [1] below 0.01 µM. The “HPK1/GLK Fold” value in the data set on HPK1/GLK is “++++ (1000≤Fold)”. In addition, in data set [2], the AUC stood at 8530 ng·h/mL. The compound further showed a DC50 on HPK1 kinase [3] (class symbols) below 0.01 µM.
`Cc1cc(N2CCC(CN3CC=C(c4c(C)cc(-c5cnc6[nH]cc(-c7ccc(C(=O)N(C)C)cc7)c6n5)cc4C)CC3)CC2)ccc1N1CCC(=O)NC1=O` [compound 113]: the IC50 at HPK1 kinase [1] was below 0.01 µM. The “HPK1/GLK Fold” value with HPK1/GLK is “++++ (1000≤Fold)”. Besides, at HPK1 kinase [3] (class symbols), the DC50 is below 0.01 µM.
In the case of `Cc1cc(-c2cnc3[nH]cc(-c4cnc(C(F)(F)F)s4)c3n2)cc(C)c1C1=CCN(CC2CN(c3ccc(N4CCC(=O)NC4=O)c(F)c3)C2)CC1` [compound 165], the IC50 against HPK1 kinase [1] was below 0.01 µM. Besides, the “HPK1/GLK Fold” value in the data set on HPK1/GLK is on record as “++++ (1000≤Fold)”. Further, the DC50 on HPK1 kinase [3] (class symbols) is below 0.01 µM.
In turn, `Cc1cc(N2CC(CN3CC=C(c4c(C)cc(-c5cnc6[nH]cc(-c7cnn(C8CCN(CC(F)F)CC8)c7)c6c5)cc4C)CC3)C2)ccc1N1CCC(=O)NC1=O` [compound 110] registered an IC50 at HPK1 kinase [1] below 0.01 µM. This compound gave an AUC in data set [2] of 4070 ng·h/mL. The same compound showed a DC50 on HPK1 kinase [3] (numeric values) of 0.0124 µM.
The compound `Cc1cc(-c2cnc3[nH]cc(-c4ccc(C(=O)N(C)C)cc4)c3n2)cc(C)c1C1=CCN(CC2CN(c3ccc(C(=O)NC4CCC(=O)NC4=O)cc3)C2)CC1` (stereo not shown) [compound 081] had an IC50 on HPK1 kinase [1] below 0.01 µM. For the same compound, the “HPK1/GLK Fold” value with HPK1/GLK was “++++ (1000≤Fold)”. This compound also gave a DC50 at HPK1 kinase [3] (class symbols) below 0.01 µM.
